Measured values reported in patent US12534444B2, “Treatment of cancer/inhibition of metastasis” (Celex Oncology Innovations Limited, priority 2010, dated 2026).
Entries after “also recorded” stand apart in the source; their conditions may differ.

Experiments:
MDA-MB-231 cells [1] = assay: Lateral motility assay (wound-heal / scratch); format: cell-based, human
Description: This assay was used to represent the “free” motility of cancer cells during local spreading. FIG. 5(a) is a plan view from above of a cell culture dish 501 having a semi-confluent layer of cells 502 on its surface, the cells being in an aqueous medium 503.
In order to determine lateral motility, a “wound-heal (“scratch”)” test was carried out, in which a scratch 504 of ˜0.5 mm was made through the layer of cells, as shown in FIG. 5(b) which is a side sectional view of the cell culture dish.
During the period of 24 hours following the formation of the scratch, the cells moved into the gap.
FIGS. 5(c) and 5(d) are schematic plan views of the cell culture dish 501 at time t=zero when the width of the scratch 504 is w0 and time t=24 hours when the width of the scratch 504 is w24, respectively.
(§1) With the exception of single cell adhesion tests, which are discussed in the following paragraph, experiments were carried out under either; • (i) normal normoxic conditions ([…], 5% carbon dioxide), or • (ii) following 24 hours hypoxic pre-treatment (2% O2, 5% CO2, 93% N2) continued during the assays.

MDA-MB-231 cells [2] = assay: Invasion assay (Matrigel Transwell); format: cell-based, human
Text: (§2) This assay is an extension of the transverse migration assay described above. To “invade”, the cells need both (i) to move as in the transverse migration assay and (ii) secrete a proteolytic enzyme to digest their surroundings. The ability of cells to invade neighbouring tissues by enzyme secretion was therefore assessed by using a layer of Matrigel™ (BD Biosciences) spread across the porous membrane of a Transwell® insert.
(§3) FIG. 7 is a schematic side sectional view of an invasion chamber 701 having a Transwell® insert 702 separating the chamber into upper 703 and lower 704 sections. The insert 702 has a migration filter membrane 705 in its base with 8 μm pores 706 extending therethrough. A layer 707 of Matrigel™ is shown coating the filter membrane 705.
(§4) Cells 708 were plated at a density of 2×10^4/ml onto the Matrigel™ layer 707 in 24-well plates (Becton-Dickinson) according to the manufacturers' instructions. 50 μl Matrigel™ was seeded at a 1:7 dilution (10 mg/ml stock) onto the inserts and left overnight. Prior to seeding with the cells the Matrigel™ was rehydrated using medium with no additions. This medium was removed prior to seeding the cells.
(§5) Cells were plated in a 1-5% FBS chemotactic gradient overnight (12 hours). The nutrient concentration in the medium 709 in the upper section 703 of the chamber was less than the concentration of nutrient in the medium 710 in the lower section 704 to induced movement of the cells through the Matrigel™ layer 707 and through the pores 706 to the underside of the filter membrane 705. At the end of each assay, non-invaded/non-migrated cells were removed from the upper surface of the insert 702 with two different swabs.
(§6) The number of cells invading to the underside of the insert 702 was determined using crystal violet staining. Invaded cells were fixed for 15 minutes with ice-cold methanol. Then 0.5% crystal violet (in 25% methanol) was added for 15 minutes. The inserts were swabbed again and then washed in water and allowed to dry. Cells were then counted using twelve separate fields of view per insert (×200 magnification). If the difference in the average number of cells invading the two control inserts was more than 40%, the experiment was rejected.
as §1

Mat-LyLu cells [3] = assay: Invasion assay (Matrigel Transwell); format: cell-based, rat
Text: as §2, §3, §4, §5, §6, §1

Mat-LyLu cells [4] = assay: Cell growth (proliferation) assay (MTT); format: cell-based, rat
Description: Cells were plated at 2×10^4 cells/ml in 24-well plates (Becton-Dickinson) and allowed to settle overnight. The cells were then treated for the required time of incubation (24 hours+), with medium changes every 24 hours. At the end of the treatment, the medium was removed, and this was followed by the colorimetric 3-[4,5-dimethylthiazol-2-yl]-2,5-diphenyltetrazolium bromide (MTT) assay (Grimes et al., 1995). Briefly, 0.1 ml MTT (5 mg/ml made up in the growth medium) and 0.4 ml growth medium was added in each well and the plate was incubated for 3-4 hours at 37° C. The medium was then removed from the chambers and replaced with 0.5 ml dimethyl sulfoxide (DMSO) and 0.063 ml glycine buffer (0.1 M glycine and 0.1 M NaCl; pH 10.5). Absorbance at 570 nm was determined 15 minutes after the addition of the glycine buffer. Results were calculated as means of nine repeats of each of the treatment vs. control spectrophotometer readings from individual invasion wells.
as §1

Mat-LyLu cells [5] = assay: Cell viability assay (trypan blue); format: cell-based, rat; settings: 24 hours
Description: Cells were seeded at a density of 5×10^4 cells/ml in 35 mm Falcon tissue culture dishes. After treatment with a given drug, the medium was removed and replaced with 800 μl of growth medium and 200 μl 0.4% trypan blue (Sigma, Dorset, UK) and incubated for 10 minutes in the incubator. The trypan blue was removed and the cells were washed once with 3 ml growth medium. For each treatment, cells from 30 random fields of view were counted under 100× magnification. The number of dead cells, stained blue, was counted in each field of view. The data were expressed as percentages of living cells out of the total number of cells in given fields of view. The percentages were averaged and differences between control and treatment were compared from at least three independent experiments.
as §1

[6] = Hypoxia, 10 μM, listed as RANOLAZINE
[7] = Normoxia, 10 μM, listed as RANOLAZINE
[8] = Hypoxia, 20 μM, listed as RANOLAZINE
[9] = Hypoxia, 50 μM, listed as RANOLAZINE
[10] = Hypoxia, 300 μM, listed as RANOLAZINE
[11] = Normoxia, 20 μM, listed as RANOLAZINE
[12] = Normoxia, 50 μM, listed as RANOLAZINE
[13] = Normoxia, 300 μM, listed as RANOLAZINE

SMILES: COc1ccccc1OCC(O)CN1CCN(CC(=O)Nc2c(C)cccc2C)CC1 (stereo not shown) [ranolazine]
- LATERAL MOTILITY (MDA-MB-231 cells [1]; Hypoxia, 1 μM): statistically significant reduction; also recorded: reduced the lateral motility
- LATERAL MOTILITY (MDA-MB-231 cells [1]; Hypoxia, 1 μM, listed as RANOLAZINE): decreased
- LATERAL MOTILITY (MDA-MB-231 cells [1]; Hypoxia, 10 μM): statistically significant reduction; also recorded: reduced the lateral motility
- LATERAL MOTILITY (MDA-MB-231 cells [1]; [6]): decreased
- LATERAL MOTILITY (MDA-MB-231 cells [1]; Hypoxia, 100 μM): statistically significant reduction; also recorded: reduced the lateral motility
- LATERAL MOTILITY (MDA-MB-231 cells [1]; Hypoxia, 100 μM, listed as RANOLAZINE): decreased
- LATERAL MOTILITY (MDA-MB-231 cells [1]; Normoxia, 1 μM): reduced
- LATERAL MOTILITY (MDA-MB-231 cells [1]; Normoxia, 1 μM, listed as RANOLAZINE): decreased
- LATERAL MOTILITY (MDA-MB-231 cells [1]; Normoxia, 10 μM): reduced
- LATERAL MOTILITY (MDA-MB-231 cells [1]; [7]): decreased
- LATERAL MOTILITY (MDA-MB-231 cells [1]; Normoxia, 100 μM): reduction at a concentration of 100 μM ranolazine was statistically significant
- LATERAL MOTILITY (MDA-MB-231 cells [1]; Normoxia, 100 μM, listed as RANOLAZINE): decreased
- INVASIVENESS (no pretreatment) (MDA-MB-231 cells [2]; Hypoxia, 5 μM): not statistically significant
- INVASIVENESS (pretreatment) (MDA-MB-231 cells [2]; Hypoxia, 5 μM, 72 hours pretreatment): very significant reduction
- INVASIVENESS (pretreatment) (MDA-MB-231 cells [2]; Hypoxia, 5 μM, 72 hours pretreatment, listed as RANOLAZINE): decreased
- INVASIVENESS (no pretreatment) (MDA-MB-231 cells [2]; Hypoxia, 5 μM, listed as RANOLAZINE): no benefit
- INVASIVENESS (no pretreatment) (MDA-MB-231 cells [2]; Hypoxia, 10 μM): not statistically significant
- INVASIVENESS (no pretreatment) (MDA-MB-231 cells [2]; [6]): decreased
- INVASIVENESS (no pretreatment) (MDA-MB-231 cells [2]; Hypoxia, 20 μM): reduced the migration of the cells
- INVASIVENESS (no pretreatment) (MDA-MB-231 cells [2]; [8]): no benefit
- INVASIVENESS (no pretreatment) (MDA-MB-231 cells [2]; Hypoxia, 25 μM): less invasive than untreated cells in a statistically significant way
- INVASIVENESS (pretreatment) (MDA-MB-231 cells [2]; Hypoxia, 25 μM, 48 hours): decreased
- INVASIVENESS (pretreatment) (MDA-MB-231 cells [2]; Hypoxia, 25 μM, 72 hours): decreased
- INVASIVENESS (no pretreatment) (MDA-MB-231 cells [2]; Hypoxia, 25 μM, listed as RANOLAZINE): decreased
- invasiveness (pre-treatment) (MDA-MB-231 cells [2]; Hypoxia, 25 μM, pre-treated for 24 hours before the 24 hour long assay): significantly less invasive
- invasiveness (pre-treatment) (MDA-MB-231 cells [2]; Hypoxia, 25 μM, pre-treated for 48 hours before the 24 hour long assay): significantly less invasive
- INVASIVENESS (no pretreatment) (MDA-MB-231 cells [2]; Hypoxia, 50 μM): reduced the migration of the cells
- INVASIVENESS (no pretreatment) (MDA-MB-231 cells [2]; [9]): decreased
- INVASIVENESS (no pretreatment) (MDA-MB-231 cells [2]; Hypoxia, 300 μM): reduced the migration of the cells
- INVASIVENESS (no pretreatment) (MDA-MB-231 cells [2]; [10]): decreased
- INVASIVENESS (no pretreatment) (MDA-MB-231 cells [2]; Normoxia, 10 μM): reduced the migration of the cells
- INVASIVENESS (no pretreatment) (MDA-MB-231 cells [2]; [7]): decreased
- INVASIVENESS (no pretreatment) (MDA-MB-231 cells [2]; Normoxia, 20 μM): reduced the migration of the cells
- INVASIVENESS (no pretreatment) (MDA-MB-231 cells [2]; [11]): decreased
- INVASIVENESS (no pretreatment) (MDA-MB-231 cells [2]; Normoxia, 50 μM): not statistically significant
- INVASIVENESS (no pretreatment) (MDA-MB-231 cells [2]; [12]): no effect
- INVASIVENESS (no pretreatment) (MDA-MB-231 cells [2]; Normoxia, 300 μM): reduced the migration of the cells
- INVASIVENESS (no pretreatment) (MDA-MB-231 cells [2]; [13]): decreased
- potency on invasiveness compared with positive control TTX (MDA-MB-231 cells [2]; higher concentrations tested, TTX 10 μmol): more potent than the toxin (TTX)
- INVASIVENESS (no pretreatment) (Mat-LyLu cells [3]; Hypoxia, 20 μM): reduced the migration of the cells in a statistically significant way
- INVASIVENESS (no pretreatment) (Mat-LyLu cells [3]; [8]): decreased
- INVASIVENESS (no pretreatment) (Mat-LyLu cells [3]; Hypoxia, 50 μM): reduced the migration of the cells in a statistically significant way
- INVASIVENESS (no pretreatment) (Mat-LyLu cells [3]; [9]): decreased
- INVASIVENESS (no pretreatment) (Mat-LyLu cells [3]; Hypoxia, 300 μM): reduced the migration of the cells in a statistically significant way
- INVASIVENESS (no pretreatment) (Mat-LyLu cells [3]; [10]): decreased
- INVASIVENESS (no pretreatment) (Mat-LyLu cells [3]; Normoxia, 20 μM): reduced the migration of the cells in a statistically significant way
- INVASIVENESS (no pretreatment) (Mat-LyLu cells [3]; [11]): decreased
- INVASIVENESS (no pretreatment) (Mat-LyLu cells [3]; Normoxia, 50 μM): reduced the migration of the cells in a statistically significant way
- INVASIVENESS (no pretreatment) (Mat-LyLu cells [3]; [12]): decreased
- INVASIVENESS (no pretreatment) (Mat-LyLu cells [3]; Normoxia, 300 μM): reduced the migration of the cells in a statistically significant way
- INVASIVENESS (no pretreatment) (Mat-LyLu cells [3]; [13]): decreased
- potency on invasiveness compared with positive control TTX (Mat-LyLu cells [3]; higher concentrations tested, TTX 1 μM): more potent than the toxin (TTX)
- PROLIFERATION (24 hours) (Mat-LyLu cells [4]; Hypoxia, 20 μM): did not result in any statistically significant effect
- PROLIFERATION (24 hours) (Mat-LyLu cells [4]; [8]): no effect
- PROLIFERATION (24 hours) (Mat-LyLu cells [4]; Hypoxia, 50 μM): did not result in any statistically significant effect
- PROLIFERATION (24 hours) (Mat-LyLu cells [4]; [9]): no effect
- PROLIFERATION (24 hours) (Mat-LyLu cells [4]; Hypoxia, 300 μM): reduction in the number of cells
- PROLIFERATION (24 hours) (Mat-LyLu cells [4]; [10]): tail off
- PROLIFERATION (24 hours) (Mat-LyLu cells [4]; Normoxia, 20 μM): did not result in any statistically significant effect
- PROLIFERATION (24 hours) (Mat-LyLu cells [4]; [11]): no effect
- PROLIFERATION (24 hours) (Mat-LyLu cells [4]; Normoxia, 50 μM): did not result in any statistically significant effect
- PROLIFERATION (24 hours) (Mat-LyLu cells [4]; [12]): no effect
- PROLIFERATION (24 hours) (Mat-LyLu cells [4]; Normoxia, 300 μM): did not result in any statistically significant effect
- PROLIFERATION (24 hours) (Mat-LyLu cells [4]; [13]): tail off
- CELL VIABILITY (Mat-LyLu cells [5]; Hypoxia, 20 μM): no effect
- CELL VIABILITY (Mat-LyLu cells [5]; Hypoxia, 50 μM): no effect
- CELL VIABILITY (Mat-LyLu cells [5]; Hypoxia, 300 μM): no effect
- CELL VIABILITY (Mat-LyLu cells [5]; Normoxia, 20 μM): no effect
- CELL VIABILITY (Mat-LyLu cells [5]; Normoxia, 50 μM): no effect
- CELL VIABILITY (Mat-LyLu cells [5]; Normoxia, 300 μM): no effect
